# Data: patent US20070112000A1, “Chemical compounds” (AstraZeneca R&D Alderley, priority 2003, published 2007)
# Biological target: T1, human 11βHSD1 enzyme (Homo sapiens, UniProt P28845)
# T1 construct: stably transfected with a construct containing fill-length human 11βHSD1 enzyme (in pCMVHyg); expressed in transfected cells; host or cells: HeLa cells (human cervical carcinoma) stably carrying the GRE4-β-galactosidase reporter and 11βHSD1 in pCMVHyg
# Assay: HeLa GRE4-βGal/11βHSD1 cell reporter assay (cortisone to cortisol conversion, β-galactosidase readout)
# Format: cell-based
# Settings: HeLa GRE4-βGal/11βHSD1 cells, cortisone 1 μM, overnight incubation
# Source text: HeLa cells (human cervical carcinoma derived cells) were stably transfected with a construct containing four copies of the glucocorticoid response element (GRE) linked to a beta-galactosidase reporter gene (3 kb lac Z gene derived from pSV-B-galactosidase). These cells were then further stably transfected with a construct containing fill-length human 11βHSD1 enzyme (in pCMVHyg) to create GRE4-βGal/11βHSD1 cells. The principal of the assay is as follows. Cortisone is freely taken up by the cells and is converted to cortisol by 11βHSD1 oxo-reductase activity and cortisol (but not cortisone) binds to and activates the glucocorticoid receptor. Activated glucocorticoid receptor then binds to the GRE and initiates transcription and translation of β-galactosidase. Enzyme activity can then be assayed with high sensitivity by colourimetric assay.
# Cells were routinely cultured in DMEM (Invitrogen, Paisley, Renfrewshire, UK) containing 10% foetal calf serum (LabTech), 1% glutamine (Invitrogen), 1% penicillin & streptomycin (Invitrogen), 0.5 mg/ml G418 (Invitrogen) & 0.5 mg/ml hygromycin (Boehringer). Assay media was phenol red free-DMEM containing 1% glutamine, 1% penicillin & streptomycin.
# Compounds (1 mM) to be tested were dissolved in dimethyl sulphoxide (DMSO) and serially diluted into assay media containing […]. […]
# A cocktail (25 μl) consisting of 10× Z-buffer (600 mM Na2HPO4, 400 mM NaH2PO4.2H2O, 100 mM KCl, 10 mM MgSO4.7H2O, 500 mM, β-mercaptoethanol, pH 7.0), SDS (0.2%), chlorophenol red-β-D-galactopyranoside (5 mM, Roche Diagnostics) was added per well and plates incubated at 37° C. for 34 hours. β-Galactosidase activity was indicated by a yellow to red colour change (absorbance at 570 nm) measured using a Tecan Spectrafluor Ultra.
# The calculation of median inhibitory concentration (IC50) values for the inhibitors was performed using Origin 6.0 (Microcal Software, Northampton Mass. USA). Dose response curves for each inhibitor were plotted as OD units at each inhibitor concentration with relation to a maximum signal (cortisone, no compound) and IC50 values calculated. […]
# T1 sequence (P28845 whole entry): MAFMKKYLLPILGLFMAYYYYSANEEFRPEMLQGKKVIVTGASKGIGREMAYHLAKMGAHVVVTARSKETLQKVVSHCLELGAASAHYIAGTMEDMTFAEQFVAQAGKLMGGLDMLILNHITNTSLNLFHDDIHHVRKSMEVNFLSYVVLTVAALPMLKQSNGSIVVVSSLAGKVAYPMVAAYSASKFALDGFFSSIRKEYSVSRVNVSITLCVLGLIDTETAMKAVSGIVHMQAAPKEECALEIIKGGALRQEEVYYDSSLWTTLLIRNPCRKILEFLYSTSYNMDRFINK
row,SMILES,IC50 [nM]
1,O=C(c1ccc(F)cc1)C1CCCN(C(=O)Cc2ccc(F)cc2)C1 (stereo not drawn) [Example 17],83
2,CC(C)S(=O)(=O)N1CCCC(C(=O)c2ccc(F)cc2)C1 (stereo not drawn) [Example 13],10
3,O=C(c1ccc(F)cc1)C1CCCN(C(=O)c2ccc(Cl)s2)C1 (stereo not drawn) [Example 18],206
